[invAb] = inverted abasic unit; m = 2'-O-methyl; r = 2'-OH (RNA); f = 2'-fluoro
Tests used:
ENaCα mRNA = test: Screening of ENaCα siNAs in human A549 cells (quantitative RT-PCR); format: cell-based; set-up: Percent Reduction of the ENaCα mRNA relative to a non-targeting control siNA (NTC): concentration or dose not given beside the values; settings: for Avg ENaCα Expression / Mean (level of ENaCα expression normalized to the level of GAPDH) / Percent Reduction of the ENaCα mRNA relative to a non-targeting control siNA (NTC) / Avg GAPDH Expression: human A549 cells, n = 3; for Avg ENaCα Expression: 25 nM siNA with Lipofectamine 2000, harvested 24 hours post-transfection; for Mean (level of ENaCα expression normalized to the level of GAPDH) / Percent Reduction of the ENaCα mRNA relative to a non-targeting control siNA (NTC) / Avg GAPDH Expression: 24 hours post-transfection; for Avg GAPDH Expression: housekeeping gene used for normalisation; for IC50 / Human % KD (efficacy of ENaCα mRNA knockdown): human cell line; for IC50: dose response, read-out: Human IC50 (potency of ENaCα mRNA knockdown); for Human % KD (efficacy of ENaCα mRNA knockdown): summary
Procedure: siNA constructs (Table 1b) may be tested for efficacy in reducing ENaC RNA expression in, for example, A549 human lung carcinoma cells. A549 (human; ATCC cat# CCL-185) cells were cultured at 37° C. in the presence of 5% CO2 and grown in Ham's F12K medium with 2 mM L-glutamine adjusted to contain 1.5 g/L sodium bicarbonate and supplemented with fetal bovine serum at a final concentration of 10% and 100 U/mL penicillin. The A549 cells were plated approximately 24 hours before transfection in 96-well plates at 7,500 cells/well, 100 μl/well. After 24 hours complexes containing siNA and Lipofectamine 2000 (Invitrogen) were created as follows: a solution of Lipofectamine 2000 in OPTI-MEM was prepared containing Lipofectamine 2000 at a final concentration of 14 μg/ml. In parallel, solutions of the siNAs were prepared in OPTI-MEM at a final concentration of 150 nM. After both solutions were incubated at 20° C. for 20 minutes an equal volume of the siNA solutions and the Lipofectamine 2000 solution were added together for each of the siNAs. The resultant solution has the siNAs at a final concentration of 75 nM and Lipofectamine 2000 at a final concentration of 7 μg/ml. This solution was incubated at 20° C. for 20 minutes. After incubation 50 μl of the solution were added to each of the wells (in triplicate). The final concentration of siNA in each well was 25 nM and the final concentration of Lipofectamine 2000 in each well was 2.33 μg/ml. […] Dose response curves were determined in a similar manner with each concentration being done in triplicate and maintaining a constant amount of Lipofectamine 2000 in each transfection.
RNA was extracted from 96-well plates using the Invitek Invisorb RNA Cell HTS 96 Kit/C (Cat# 70619000) with a slightly modified protocol. The details of the protocol for isolating RNA from each plate are described as follows:
1) Aspirate media with rake 2) Add 150 ul/well Lysis buffer 3) Place on plate shaker for 1 minute 4) Place DNA binding plate on top of 0.5 ml collection plate 5) Pipette 190 ul up and down twice and add to DNA binding plate 6) Cover plate 7) Centrifuge plates 4 minutes at 4000 RPM 8) Discard DNA binding plate 9) Place the RNA binding plate on top of 2 ml collection plate 10) Add 150 ul/well of Binding Buffer R to 0.5 ml collection plate 11) Move contents of 0.5 ml collection plate to RNA binding plate 12) Let incubate for 1 minute 13) Centrifuge plates 4 minutes at 4000 RPM 14) Add 600 ul/well of Wash Buffer R1 to RNA binding plate 15) Centrifuge plates 4 minutes at 4000 RPM 16) Dump wash buffer from 2 ml collection plate 17) Add 400 ul/well of Wash Buffer R2 to RNA binding plate 18) Centrifuge plates 4 minutes at 4000 RPM 19) Add 400 ul/well of Wash Buffer R2 to RNA binding plate 20) Centrifuge plates 10 minutes at 4000 RPM 21) Dump wash buffer from 2 ml collection plate 22) Centrifuge plates 3 minutes at 4000 RPM 23) Discard 2 ml collection plate and place RNA binding plate on to microtiter plate 24) Add 100 ul/well of elution buffer to RNA binding plate 25) Incubate for 2 minutes 26) Seal plate 27) Centrifuge plates 3 minutes at 4000 RPM 28) Discard RNA binding plate 29) Cover microtiter plate for storage in −80 freezer
A series of probes and primers were used to detect the various mRNA transcripts of the genes of ENaCa and GAPDH in mouse, rat, and human cell lines. The assays were performed on an ABI 7500 instrument, according to the manufacturer's instructions. Within each experiment, the baseline was set in the exponential phase of the amplification curve, and based on the intersection point of the baselines with the amplification curve, a Ct value was assigned by the instrument. This Ct value was then assigned a QTY value based on the Standard Curve. The standard curve in the various experiments herein used 1 ng to 300 ng of RNA extracted from the same cell line used for the experimental transfections. […]

rSCNN1A (r ENaCα) mRNA = test: Screening of ENaCα siNAs in Rat H-4-II-E cells (quantitative RT-PCR); format: cell-based; set-up: Percent Reduction of the r ENaCα mRNA relative to a non-targeting control siNA (NTCs) / Rat % KD (efficacy of ENaCα mRNA knockdown): concentration or dose not given beside the values; settings: for Mean (rSCNN1A expression normalized to the level of rGAPDH) / Percent Reduction of the r ENaCα mRNA relative to a non-targeting control siNA (NTCs) / Avg ENaCα Expression (rSCNN1A) / Avg GAPDH Expression (rGAPDH): Rat H-4-II-E cells, n = 3; for Mean (rSCNN1A expression normalized to the level of rGAPDH) / Percent Reduction of the r ENaCα mRNA relative to a non-targeting control siNA (NTCs) / Avg GAPDH Expression (rGAPDH): 24 hours post-transfection; for Avg ENaCα Expression (rSCNN1A): harvested 24 hours post-transfection; for Avg GAPDH Expression (rGAPDH): housekeeping gene used for normalisation; for IC50 / Rat % KD (efficacy of ENaCα mRNA knockdown): rat cell line; for IC50: dose response, read-out: Rat IC50 (potency of ENaCα mRNA knockdown); for Rat % KD (efficacy of ENaCα mRNA knockdown): summary
Procedure: A series of probes and primers were used to detect the various mRNA transcripts of the genes of ENaCa and GAPDH in mouse, rat, and human cell lines. The assays were performed on an ABI 7500 instrument, according to the manufacturer's instructions. Within each experiment, the baseline was set in the exponential phase of the amplification curve, and based on the intersection point of the baselines with the amplification curve, a Ct value was assigned by the instrument. This Ct value was then assigned a QTY value based on the Standard Curve. The standard curve in the various experiments herein used 1 ng to 300 ng of RNA extracted from the same cell line used for the experimental transfections.
All IC50 values were calculated from the data using GraphPad Prizm software, specifically a sigmoidal, variable slope curve for simple ligand binding. Also, unless otherwise indicated, all calculations of the efficacy and potency (e.g., % knockdown) of the siNAs were done relative to a non-targeting control siNA. If reported, P-values were computed using The Students t-test, including the Welch Correction for unequal variances.
In all of the calculations of the % knock-down of mRNA, the calculation was made relative to the normalized level of expression of the gene of interest in the samples treated with the non-targeting control (NTC) unless otherwise indicated. The gene of interest expression level was divided by the level of expression of GAPDH or 36B4 (depending on the species) in each sample. The three replicates for each condition in each experiment were averaged and the standard deviation of those samples was calculated. The following formula was then used to calculate the % of knock-down of the gene of interest:
The ENaCα siNAs were designed and synthesized as described previously. The siNAs were screened in three cell lines. Human A549 cells, mouse NIH 3T3 and Rat H-4-II-E cells. The data from the screen of ENaCa siNAs in all three species is shown in Tables 3a, 3b, 4a, 4b, 5a, and 5b and a summary of the data for certain siNA molecules is presented in Table 6. Each screen was performed at 24 hrs. The decision to use this time point was based upon the degree of knockdown of the mRNA seen at that time point.

Substance	Avg ENaCα Expression (ENaCα mRNA)	Mean (level of ENaCα expression normalized to the level of GAPDH) (ENaCα mRNA)	Percent Reduction of the ENaCα mRNA relative to a non-targeting control siNA (NTC) (ENaCα mRNA) [%]	Avg GAPDH Expression (ENaCα mRNA)	IC50 (ENaCα mRNA) [nM]	Human % KD (efficacy of ENaCα mRNA knockdown) (ENaCα mRNA)	Mean (rSCNN1A expression normalized to the level of rGAPDH) (rSCNN1A (r ENaCα) mRNA)	Percent Reduction of the r ENaCα mRNA relative to a non-targeting control siNA (NTCs) (rSCNN1A (r ENaCα) mRNA) [%]	Avg ENaCα Expression (rSCNN1A) (rSCNN1A (r ENaCα) mRNA)	Avg GAPDH Expression (rGAPDH) (rSCNN1A (r ENaCα) mRNA)	IC50 (rSCNN1A (r ENaCα) mRNA) [nM]	Rat % KD (efficacy of ENaCα mRNA knockdown) (rSCNN1A (r ENaCα) mRNA) [%]
B GcuGuGccuAcAucuucuA TTB / UAGAAGAuGuAGGcAcAGcUU (sense GCUGUGCCUACAUCUUCUATT; antisense UAGAAGAUGUAGGCACAGCUU; siRNA; B caps on sense ends, letter-case modifications not given here, further chemistry not given here) [Site 1388]	36.49	0.30	54.1	120.24	0.19	55-80%	0.32	65.6	11.65	37.10	0.9	65
B GuGGcuGuGccuAcAucuu TTB / AAGAuGuAGGcAcAGccAcUU (sense GUGGCUGUGCCUACAUCUUTT; antisense AAGAUGUAGGCACAGCCACUU; siRNA; sense: DNA at AGT, 2'-fluoro at CU, [invAb] at 5' end, 3' end, backbone not given here; antisense: sugars from the 5' end rrrmfmfmmmfmfmmffmfmm, backbone not given here) [Site 1385]	90.81	0.81	−23.6	119.04			0.58	36.7	19.09	30.04		
B GuGuGGcuGuGccuAcAuc TTB / GAUGuAGGcAcAGccAcAcUU (sense GUGUGGCUGUGCCUACAUCTT; antisense GAUGUAGGCACAGCCACACUU; siRNA; B caps on sense ends, letter-case modifications not given here, further chemistry not given here) [Site 1383]	40.44	0.78	49.8	52.36	0.41	50-70%	0.63	50.7	15.01	23.52	1	50
B GuccAAccuGGGcAGccAG TTB / CUGGcuGcccAGGuuGGAcUU (sense GUCCAACCUGGGCAGCCAGTT; antisense CUGGCUGCCCAGGUUGGACUU; siRNA; sense: DNA at AGT, 2'-fluoro at CU, [invAb] at 5' end, 3' end, backbone not given here; antisense: sugars from the 5' end rmmmffmfffmmmffmmmfmm, backbone not given here) [Site 1743]	68.82	0.57	13.9	121.24			0.52	43.9	22.13	42.82		
B cAGAGcAGAAuGAcuucAu TTB / AUGAAGucAuucuGcucuGUU (sense CAGAGCAGAAUGACUUCAUTT; antisense AUGAAGUCAUUCUGCUCUGUU; siRNA; sense: DNA at AGT, 2'-fluoro at CU, [invAb] at 5' end, 3' end, backbone not given here; antisense: sugars from the 5' end rrrmmmffmffffmffffmmm, backbone not given here) [Site 1100]	66.11	1.14	26.8	64.16			0.83	35.4	21.68	26.15		
B cAcAAccGcAuGAAGAcGG TTB / CCGucuucAuGcGGuuGuGUU (chain 1 CACAACCGCAUGAAGACGGTT; chain 2 CCGUCUUCAUGCGGUUGUGUU; siRNA; chain 1: DNA at AGT, 2'-fluoro at CU, [invAb] at 5' end, 3' end, backbone not given here; chain 2: sugars from the 5' end rrrfffffmfmfmmffmfmmm, backbone not given here) [Site 334]	58.30	1.49	4.5	42.86			0.85	33.7	16.10	19.11		

— patent publication US20110288154A1, “RNA Interference Mediated Inhibition of Epithelial Sodium Channel (ENaC) Gene Expression Using Short Interfering Nucleic Acid (siNA)” (MERCK & CO., INC., priority 2008, published 2011)
